The record followed here is ChEMBL document CHEMBL5360638, “Development of an Affinity-Based Probe to Profile Endogenous Human Adenosine A3 Receptor Expression” (J Med Chem, 2023).

One assay is filed under the species Homo sapiens. Put plainly: Selectivity ratio of pKi for human A3AR to pKi for human A1AR.
For assay [1], the target named is T1, Adenosine receptor A3 (Homo sapiens) (UniProt P0DMS8).
T1 sequence (whole entry): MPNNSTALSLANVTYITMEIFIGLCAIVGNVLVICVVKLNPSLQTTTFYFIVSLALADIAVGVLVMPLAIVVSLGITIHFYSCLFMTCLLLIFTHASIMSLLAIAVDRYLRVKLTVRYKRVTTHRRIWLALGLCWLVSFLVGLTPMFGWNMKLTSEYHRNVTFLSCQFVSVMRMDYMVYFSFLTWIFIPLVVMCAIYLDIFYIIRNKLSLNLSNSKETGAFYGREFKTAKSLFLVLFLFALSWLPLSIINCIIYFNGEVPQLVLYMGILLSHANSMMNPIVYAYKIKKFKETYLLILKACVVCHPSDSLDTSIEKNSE
As to the kind of experiment: Binding affinity to human A3AR at 50 nM incubated for 1 hr by SDS-PAGE analysis.

The target in assay [2] is T1, Adenosine receptor A3 (Homo sapiens). Put plainly: Binding affinity to human A3AR expressed in CHO cells membrane at 50 nM incubated for 1 hr by SDS-PAGE analysis. The format is cell membranes.
The target is the same in assay [3]. Put plainly: Binding affinity to human A3AR expressed in eosinophil incubated for 1 hr by flow cytometry analysis. It counts as cell-based. For orientation: In flow cytometry, cells or beads pass a laser one at a time.
The target is the same in assay [4]. Put plainly: Binding affinity to human A3AR expressed in granulocytes incubated for 1 hr by flow cytometry analysis. It counts as cell-based.

The structures appear in SMILES notation. Activity calls are given as the source filed them. No cut-off for these calls is given here. Where only a bound is given, the exact number is not on record here.

On to `C#CCN(CCCn1c(=O)n(CCC)c(=O)c2c1nc1cc(OC)ccn12)C(=O)c1ccc(S(=O)(=O)F)cc1`, for which the Ratio pKi in the assay listed under Homo sapiens is > 100. In assay [1], the result was Active.
As to `C#CCn1c(=O)c2c(nc3cc(OC)ccn32)n(CCCNC(=O)c2ccc(S(=O)(=O)F)cc2)c1=O`, in assay [1], the result was Active.
`C#CCOc1ccn2c(c1)nc1c2c(=O)n(CCC)c(=O)n1CCCNC(=O)c1ccc(S(=O)(=O)F)cc1`: in the assay listed under Homo sapiens, the Ratio pKi is > 17. Also, the outcome in assay [2], in assay [3] and in assay [1] was Active. In addition, the result in assay [4] was inactive.
